In patent US20240191303A1, “METHODS FOR OPTIMIZING THE TREATMENT OF COLORECTAL CANCER” (Brown University, priority 2021, published 2024):
Entries after “also recorded” stand apart in the source; their conditions may differ. Like-named read-outs stand apart in the source and are kept apart here.

Key:
[1] = oxaliplatin-treated mice; cited from earlier work
[2] = test system: HCT116 and HCT116 p53−/− cells; assay: Cytokine profiling of cell supernatants (Luminex 200), p53 status not separated; format: cell-based, human; settings: for VEGF production/release: both HCT116 and HCT116 p53−/−
Experimental: A total of 4×10^4 HCT116 or HCT116 p53^−/− cells were plated per well of a 24-well plate and incubated twelve-sixteen hours before treatment with 55-fluorouracil, CPT-11, oxaliplatin, cisplatin, or various combination treatments at the appropriate IC50 (combination treatments received each drug at their IC50). Cell supernatants were collected at forty-eight hours after treatment and stored at −20° C. Samples were prepared and run in triplicate on a Luminex 200 Instrument (R&D LX200-XPON-RUO). Sample preparation was conducted, and instrument settings were selected based on the Human Magnetix Luminex Assay (R&D LXSAHM) protocol.

[3] = test system: HCT116 p53−/− cells; assay: Cytokine profiling of cell supernatants (Luminex 200), p53−/− cells; format: cell-based, human; settings: IC50, 48 h
Experimental: (§1) Cytokine profiling. A total of 4×10^4 HCT116 or HCT116 p53^−/− cells were plated per well of a 24-well plate and incubated twelve-sixteen hours before treatment with […], CPT-11, oxaliplatin, cisplatin, or various combination treatments at the appropriate IC50 (combination treatments received each drug at their IC50). Cell supernatants were collected at forty-eight hours after treatment and stored at −20° C. Samples were prepared and run in triplicate on a Luminex 200 Instrument (R&D LX200-XPON-RUO). Sample preparation was conducted, and instrument settings were selected based on the Human Magnetix Luminex Assay (R&D LXSAHM) protocol.
(§2) Cytokine profiling. Results were analyzed in GraphPad prism, and statistical significance across drugs was determined separately for wild-type and ^−/− cells with a one-way ANOVA. p-values<0.05 were considered significant.
(§3) HCT116 and HCT116 p53^−/− cells were treated with the four drugs (5-FU, CPT-11, oxaliplatin, and cisplatin) at their IC50s and combination treatment groups received two-three drugs, each at their individual IC50 concentration.

[4] = test system: HCT116 cells (wild-type); assay: Cytokine profiling of cell supernatants (Luminex 200), wild-type cells; format: cell-based, human; settings: IC50, 48 h
Experimental: as §1, §2, §3

[5] = cited from earlier work
[6] = test system: HCT116 and HCT116 p53−/− cells; assay: Clariom D microarrays, RNA expression relative to untreated cells; format: cell-based, human; settings: IC50 dose, 8 h; for BTG2 induction, rank in p53-dependent gene signature: fold change>2
Experimental: Microarrays. Total cellular RNA was isolated, and Clariom™ D microarrays were used to measure changes in RNA expression relative to untreated cells. A total of 7×10^5 HCT116 and HCT116 p53^−/− cells were plated in a 6-well plate and incubated for twelve-sixteen hours before being treated with 5-fluorouracil, CPT-11, oxaliplatin, or cisplatin at their respective IC50 doses for eight hours. Cell pellets were collected and split into two tubes, one for western blot analysis and one for RNA extraction. Samples were randomized, and RNA was isolated (Qiagen 74134) in five batches to ensure a high-quality RNA product. Acceptable RNA concentration and quality were verified with Nanodrop and Bioanalyzer measurements. Clariom D Microarrays (ThermoFisher 902923) were conducted according to the manufacturer's protocol in two batches on randomized samples to limit batch effects.
Statistical analysis. TAC software was used to calculate fold changes and statistical significance. Microarrays Applied Biosystems Transcriptomic Analysis Console (TAC) software was used to calculate fold-changes in gene expression relative to the untreated control cells. p-values<0.05 were considered significant.
To define a pan-drug signature and to evaluate heterogeneity in the p53 response on a whole-transcriptome scale, the inventors treated HCT116 and HCT116 p53^−/− cells with each of the four drugs at their IC50 for eight hours. The RNA expression relative to an untreated control was measured using microarray analysis. Upregulation of p53 in these samples and equal induction of cell death at this dose and time point was validated by Western blot and CellTiterGlo, respectively, before microarray analysis. […] Each internal control had tightly clustered triplicates. Quality control measurements were also determined to be satisfactory for further analysis.

[7] = drug at IC50, 48 h, HCT116 vs HCT116 p53−/−
[8] = drug(s) each at IC50, 48 h, vs control

In the case of `O=C1[O][Pt]2([NH][C@@H]3CCCC[C@H]3[NH]2)[O]C1=O` [oxaliplatin, Oxaliplatin], the “neuronal damage (upregulation of FOS and ATF3)” value [1] is listed as “neuronal damage”, the “IL-8 level in cell supernatant” value [2] is listed as “increase” and the “TRAILR2 level in cell supernatant” value [2] is listed as “down-regulated”. The “p53 dependence of TRAILR2 regulation” value [2] was “dependent on p53”, the VEGF production/release ([2]; drug at IC50, 48 h) was “downregulated” and the “IL-8 level in cell supernatant” value [3] was “induced”. For the same compound, the “IL-8 level in cell supernatant” value [4] was “did not affect”, the “peripheral neuropathy, share of patients” value [5] was 30-50% and the ATF3 transcript regulation [6] was “Upregulation”. For the same compound, the FOS transcript regulation [6] was “uniquely upregulated”, the SAT1 transcript regulation [6] was “uniquely upregulated” and the SUSD2 transcript regulation [6] was “uniquely upregulated”. The “transcripts of the 5-fluorouracil/CPT-11/oxaliplatin-specific signature (e.g., SERPINE1, CEACAM1, C1orf116)” value [6] was “upregulated” and the “BTG2 induction, rank in p53-dependent gene signature” value (from here on “BTG2 induction, rank”) [6] was “top upregulated gene; also recorded: most highly induced gene”.
With `O=c1[nH]cc(F)c(=O)[nH]1` [5-fluorouracil, 5-Fluorouracil] the “p53 dependence of TRAILR2 regulation” value [2, 7] was “p53-independent”, the VEGF production/release ([2]; drug at IC50, 48 h) was “downregulated” and the “TRAILR2 level in cell supernatant” value ([2]; drug at IC50, 48 h, vs control) was “down-regulated”. The BAX transcript regulation [6] was “slight preferential upregulation; also recorded: preferentially upregulated”, the histone gene regulation [6] was “strikingly unique down-regulation; also recorded: uniquely down-regulated” and the “transcripts of the 5-fluorouracil/CPT-11/oxaliplatin-specific signature (e.g., SERPINE1, CEACAM1, C1orf116)” value [6] was “upregulated”. For the same compound, the “BTG2 induction, rank” value [6] was “top upregulated gene; also recorded: most highly induced gene”.
For `CN(C)C(=N)N=C(N)N` [metformin], the “reversal of oxaliplatin-induced neuronal damage” value [1] is given as “reversible”.
With `CCc1c2c(nc3ccc(OC(=O)N4CCC(N5CCCCC5)CC4)cc13)-c1cc3c(c(=O)n1C2)COC(=O)[C@]3(O)CC` [CPT-11, Irinotecan] the VEGF production/release ([2]; drug at IC50, 48 h) was “downregulated”, the “TRAILR2 level in cell supernatant” value ([2]; drug at IC50, 48 h, vs control) was “not affected” and the “IL-8 level in cell supernatant” value [2, 8] was “moderate increase”. The DRAM1 transcript regulation [6] was “p53-dependent, CPT-11-specific regulation”, the FDXR transcript regulation [6] was “p53-dependent, CPT-11-specific regulation” and the TLR3 transcript regulation [6] was “p53-dependent, CPT-11-specific regulation”. For the same compound, the “transcripts of the 5-fluorouracil/CPT-11/oxaliplatin-specific signature (e.g., SERPINE1, CEACAM1, C1orf116)” value [6] was “upregulated” and the “BTG2 induction, rank” value [6] was “second most highly induced gene”.
In the case of `N.N.[Cl][Pt][Cl]` [cisplatin], the “p53 dependence of TRAILR2 regulation” value [2, 7] is reported as “despite p53 status”, the VEGF production/release ([2]; drug at IC50, 48 h) is reported as “downregulated” and the “TRAILR2 level in cell supernatant” value ([2]; drug at IC50, 48 h, vs control) is reported as “increased”. The “ferritin level in cell supernatant” value [2, 8] was “increase”, the “ferritin level in cell supernatant” value [3] was “large increase” and the PITPNC1 transcript regulation [6] was “downregulation”. The PRPF39 transcript regulation [6] was “upregulation”, the ROR1 transcript regulation [6] was “downregulation” and the “transcripts of the 5-fluorouracil/CPT-11/oxaliplatin-specific signature (e.g., SERPINE1, CEACAM1, C1orf116)” value [6] was “unaffected”. For the same compound, the “BTG2 induction, rank” value [6] was “top upregulated gene; also recorded: most highly induced gene”.
